Assays:
factor Xa, human = factor Xa, human (Homo sapiens, UniProt P00742); experiment: Inhibition of factor Xa (table title: Affinity to receptors); type: biochemical
Description: The inhibition of factor Xa by the compounds according to the invention and the measurement of the anticoagulant and antithrombotic activity can be determined by conventional in-vitro or in-vivo methods. A suitable method is described, for example, by J. Hauptmann et al. in Thrombosis and Haemostasis 1990, 63, 220-223.
The inhibition of factor Xa can be measured, for example, by the method of T. Hara et al. in Thromb. Haemostas. 1994, 71, 314-319.

TF/VIIa = TF/VIIa (Homo sapiens, UniProt P08709); experiment: Inhibition of TF/VIIa (table title: Affinity to receptors); type: biochemical
Description: The inhibition of factor VIIa by the compounds according to the invention and the measurement of the anticoagulant and antithrombotic activity can be determined by conventional in-vitro or in-vivo methods. A conventional method for the measurement of the inhibition of factor VIIa is described, for example, by H. F. Ronning et al. in Thrombosis Research 1996, 84, 73-81.

Sequence of factor Xa, human (P00742 235-488 limits assumed): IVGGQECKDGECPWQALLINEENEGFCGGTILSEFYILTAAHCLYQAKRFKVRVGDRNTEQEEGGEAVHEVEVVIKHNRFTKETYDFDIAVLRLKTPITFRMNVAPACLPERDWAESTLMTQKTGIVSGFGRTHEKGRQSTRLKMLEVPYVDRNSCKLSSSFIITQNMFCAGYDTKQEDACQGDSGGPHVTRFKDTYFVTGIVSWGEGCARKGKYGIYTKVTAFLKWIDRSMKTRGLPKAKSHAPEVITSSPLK
Sequence of factor Xa, human (P00742 41-179 limits assumed): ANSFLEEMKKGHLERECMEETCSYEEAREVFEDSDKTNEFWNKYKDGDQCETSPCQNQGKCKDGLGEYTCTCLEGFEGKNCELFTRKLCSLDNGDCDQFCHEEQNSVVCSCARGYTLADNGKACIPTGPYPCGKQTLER
Sequence of TF/VIIa (P08709 213-466 limits assumed): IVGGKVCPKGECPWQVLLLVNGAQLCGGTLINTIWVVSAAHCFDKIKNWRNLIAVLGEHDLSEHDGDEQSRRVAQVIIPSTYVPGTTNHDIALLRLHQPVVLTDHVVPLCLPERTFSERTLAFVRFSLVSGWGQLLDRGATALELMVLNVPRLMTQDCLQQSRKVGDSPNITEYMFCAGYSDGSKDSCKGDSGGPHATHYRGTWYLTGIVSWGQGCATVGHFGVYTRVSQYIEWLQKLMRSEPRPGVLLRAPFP
Sequence of TF/VIIa (P08709 61-212 limits assumed): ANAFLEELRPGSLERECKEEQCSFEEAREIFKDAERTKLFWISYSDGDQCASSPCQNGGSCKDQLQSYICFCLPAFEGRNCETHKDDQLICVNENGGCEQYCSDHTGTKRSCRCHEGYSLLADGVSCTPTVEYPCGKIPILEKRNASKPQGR
Sequence of TF/VIIa (P13726 33-295 partner): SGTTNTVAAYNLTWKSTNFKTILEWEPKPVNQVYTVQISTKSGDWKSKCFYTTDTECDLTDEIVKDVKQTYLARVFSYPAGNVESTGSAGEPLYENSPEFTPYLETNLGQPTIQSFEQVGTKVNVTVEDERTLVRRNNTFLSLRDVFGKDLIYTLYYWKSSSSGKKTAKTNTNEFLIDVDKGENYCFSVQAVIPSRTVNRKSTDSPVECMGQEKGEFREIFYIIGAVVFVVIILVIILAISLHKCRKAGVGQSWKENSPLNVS

| IC50 (factor Xa, human) [µM] | IC50 (TF/VIIa) [µM] | SMILES |
| --- | --- | --- |
| 0.13 | 0.044 | CCCN(CC(=O)Nc1ccc(-c2ccccc2S(N)(=O)=O)cc1)c1cccc(C(=N)N)c1 [N-(2′-aminosulfonylbiphenyl-4-yl)-2-[(3-amidinophenyl)-N-propylamino]acetamide] |
| 0.12 | 0.031 | CCCN(CC(=O)Nc1ccc(-c2ccccc2S(C)(=O)=O)cc1)c1cccc(C(=N)N)c1 [N-(2′-methylsulfonylbiphenyl-4-yl)-2-[(3-amidinophenyl)-N-propylamino]acetamide] |
| 0.01 | 0.025 | CN(CC(=O)Nc1ccc(-c2ccccc2S(N)(=O)=O)cc1)c1cccc(C(=N)N)c1 [N-(2′-aminosulfonylbiphenyl-4-yl)-2-[(3-amidinophenyl)-N-methylamino]acetamide] |
| 0.48 | 0.37 | CC(C)CN(CC(=O)Nc1ccc(-c2ccccc2S(N)(=O)=O)cc1)c1cccc(C(=N)N)c1 [N-(2′-aminosulfonylbiphenyl-4-yl)-2-[(3-amidinophenyl)-N-isobutylamino]acetamide] |
| 0.081 | 0.015 | N=C(N)c1cccc(N(CC(=O)Nc2ccc(-c3ccccc3S(N)(=O)=O)cc2)Cc2ccccc2)c1 [N-(2′-aminosulfonylbiphenyl-4-yl)-2-[(3-amidinophenyl)-N-benzylamino]acetamide] |

— patent publication US20030166694A1, “Glycinamides” (priority 2000, published 2003)
